# Assay results reported in PubChem BioAssay AID248 (DTP/NCI, 2004).
# Several values for one entry are separate records, joined by “and”; a condition that tells them apart may be missing. Equal entries are not always repeated. Inconclusive results and toxic doses are left out.
# Test system: L1210 leukemia ip in BDF1 mice, survival T/C
# Experiment: NCI In Vivo Anticancer Drug Screen. Data for tumor model L1210 Leukemia (intraperitoneal) in B6D2F1 (BDF1) mice
# Conditions: endpoint: mean survival time, higher = longer survival
# How it was run: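 Each compound was tested against a transplantable tumor grown in mice. The endpoint was survival, with treated animals benchmarked against vehicle controls as a simple ratio.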
# [1] = dose: 25.0 mg/kg/injection, schedule: Q01DX001 (ip), vehicle: other
# [2] = dose: 50.0 mg/kg/injection, schedule: Q01DX001 (ip), vehicle: carboxymethylcellulose (CMC)
# [3] = dose: 100.0 mg/kg/injection, schedule: Q01DX001 (ip), vehicle: carboxymethylcellulose (CMC)
# [4] = dose: 100.0 mg/kg/injection, schedule: Q01DX001 (ip), vehicle: saline
# [5] = dose: 200.0 mg/kg/injection, schedule: Q01DX001 (ip), vehicle: saline
# [6] = dose: 200.0 mg/kg/injection, schedule: Q01DX001 (ip), vehicle: carboxymethylcellulose (CMC)
# [7] = dose: 400.0 mg/kg/injection, schedule: Q01DX001 (ip), vehicle: carboxymethylcellulose (CMC)
compound,measurement,setting,value
C[NH-].C[NH-].[Br][Pt+2][Br],T/C,"dose: 0.62 mg/kg/injection, schedule: Q01DX009 (ip), vehicle: water",118 % of control and 123 % of control
same,T/C,"dose: 1.5 mg/kg/injection, schedule: Q01DX001 (ip), vehicle: other",108 % of control
same,T/C,"dose: 1.5 mg/kg/injection, schedule: Q01DX009 (ip), vehicle: other",115 % of control
same,T/C,"dose: 2.0 mg/kg/injection, schedule: Q01DX009 (ip), vehicle: other",161 % of control
same,T/C,"dose: 3.0 mg/kg/injection, schedule: Q01DX001 (ip), vehicle: other",117 % of control
same,T/C,"dose: 3.0 mg/kg/injection, schedule: Q01DX005 (ip), vehicle: saline with Tween-80",105 % of control
same,T/C,"dose: 3.0 mg/kg/injection, schedule: Q01DX009 (ip), vehicle: other",153 % of control
same,T/C,"dose: 4.5 mg/kg/injection, schedule: Q01DX009 (ip), vehicle: other",95 % of control
same,T/C,"dose: 5.0 mg/kg/injection, schedule: Q01DX009 (ip), vehicle: water",98 % of control
same,T/C,"dose: 6.0 mg/kg/injection, schedule: Q01DX001 (ip), vehicle: other",117 % of control
same,T/C,"dose: 6.0 mg/kg/injection, schedule: Q01DX009 (ip), vehicle: other",98 % of control
same,T/C,"dose: 10.0 mg/kg/injection, schedule: Q01DX009 (ip), vehicle: water",115 % of control
same,T/C,[1],124 % of control
same,T/C,"dose: 50.0 mg/kg/injection, schedule: Q01DX001 (ip), vehicle: other",95 % of control
O=CC1CO1 (stereo not given),T/C,"dose: 29.0 mg/kg/injection, schedule: Q01DX Z (ip), vehicle: steriod suspending solution",97 % of control
same,T/C,"dose: 44.0 mg/kg/injection, schedule: Q01DX Z (ip), vehicle: steriod suspending solution",99 % of control
same,T/C,"dose: 66.0 mg/kg/injection, schedule: Q01DX Z (ip), vehicle: steriod suspending solution",106 % of control
Cc1c(CNc2ccc(C(=O)NC(CC(=O)O)C(=O)O)cc2)ccc2nc(N)nc(N)c12 (stereo not given),T/C,"dose: 0.05 mg/kg/injection, schedule: Q01DX009 (ip), vehicle: other",122 % of control
same,T/C,"dose: 0.06 mg/kg/injection, schedule: Q01DX009 (ip), vehicle: other",117 % of control
same,T/C,"dose: 0.1 mg/kg/injection, schedule: Q01DX009 (ip), vehicle: carboxymethylcellulose (CMC)",94 % of control
same,T/C,"dose: 0.1 mg/kg/injection, schedule: Q01DX009 (ip), vehicle: other",152 % of control
same,T/C,"dose: 0.19 mg/kg/injection, schedule: Q01DX009 (ip), vehicle: other",115 % of control
same,T/C,"dose: 0.19 mg/kg/injection, schedule: Q01DX009 (ip), vehicle: water",175 % of control
same,T/C,"dose: 0.25 mg/kg/injection, schedule: Q01DX009 (ip), vehicle: other",101 % of control
same,T/C,"dose: 0.38 mg/kg/injection, schedule: Q01DX009 (ip), vehicle: other",102 % of control
same,T/C,"dose: 0.38 mg/kg/injection, schedule: Q01DX009 (ip), vehicle: water",116 % of control
same,T/C,"dose: 0.5 mg/kg/injection, schedule: Q02DX005 (ip), vehicle: water",205 % of control
same,T/C,"dose: 0.75 mg/kg/injection, schedule: Q01DX009 (ip), vehicle: carboxymethylcellulose (CMC)",91 % of control
same,T/C,"dose: 0.75 mg/kg/injection, schedule: Q01DX009 (ip), vehicle: water",94 % of control
same,T/C,"dose: 1.0 mg/kg/injection, schedule: Q02DX005 (ip), vehicle: water",158 % of control
same,T/C,"dose: 1.5 mg/kg/injection, schedule: Q01DX009 (ip), vehicle: water",98 % of control
same,T/C,"dose: 1.56 mg/kg/injection, schedule: Q01DX001 (ip), vehicle: other",124 % of control
same,T/C,"dose: 1.69 mg/kg/injection, schedule: Q04DX003 (ip), vehicle: water",167 % of control
same,T/C,"dose: 3.0 mg/kg/injection, schedule: Q01DX009 (ip), vehicle: water",97 % of control
same,T/C,"dose: 3.38 mg/kg/injection, schedule: Q04DX003 (ip), vehicle: water",173 % of control
same,T/C,"dose: 4.0 mg/kg/injection, schedule: Q02DX005 (ip), vehicle: water",118 % of control
same,T/C,"dose: 6.75 mg/kg/injection, schedule: Q04DX003 (ip), vehicle: water",195 % of control
same,T/C,"dose: 8.0 mg/kg/injection, schedule: Q02DX005 (ip), vehicle: water",89 % of control
same,T/C,"dose: 12.5 mg/kg/injection, schedule: Q01DX001 (ip), vehicle: other",159 % of control
same,T/C,"dose: 13.5 mg/kg/injection, schedule: Q04DX003 (ip), vehicle: water",224 % of control
same,T/C,"dose: 25.0 mg/kg/injection, schedule: Q01DX001 (ip), vehicle: carboxymethylcellulose (CMC)",98 % of control
same,T/C,[1],98 % of control
same,T/C,"dose: 27.0 mg/kg/injection, schedule: Q04DX003 (ip), vehicle: water",119 % of control
same,T/C,[2],155 % of control
same,T/C,[3],158 % of control
CC(=O)NC1=C(c2ccccc2)C(=O)c2ccccc21,T/C,"dose: 45.0 mg/kg/injection, schedule: Q01DX001 (ip), vehicle: Klucel (hydroxypropylcellulose) (HPC)",107 % of control
same,T/C,"dose: 65.0 mg/kg/injection, schedule: Q01DX001 (ip), vehicle: Klucel (hydroxypropylcellulose) (HPC)",96 % of control
same,T/C,"dose: 100.0 mg/kg/injection, schedule: Q01DX001 (ip), vehicle: Klucel (hydroxypropylcellulose) (HPC)",100 % of control and 104 % of control
same,T/C,"dose: 100.0 mg/kg/injection, schedule: Q04DX003 (ip), vehicle: Klucel (hydroxypropylcellulose) (HPC)",107 % of control
same,T/C,"dose: 150.0 mg/kg/injection, schedule: Q01DX001 (ip), vehicle: Klucel (hydroxypropylcellulose) (HPC)",96 % of control
same,T/C,"dose: 200.0 mg/kg/injection, schedule: Q01DX001 (ip), vehicle: Klucel (hydroxypropylcellulose) (HPC)",96 % of control and 117 % of control and 91 % of control
same,T/C,"dose: 200.0 mg/kg/injection, schedule: Q04DX003 (ip), vehicle: Klucel (hydroxypropylcellulose) (HPC)",107 % of control
same,T/C,"dose: 300.0 mg/kg/injection, schedule: Q01DX001 (ip), vehicle: Klucel (hydroxypropylcellulose) (HPC)",104 % of control
same,T/C,"dose: 400.0 mg/kg/injection, schedule: Q01DX001 (ip), vehicle: Klucel (hydroxypropylcellulose) (HPC)",97 % of control and 102 % of control and 103 % of control
same,T/C,"dose: 400.0 mg/kg/injection, schedule: Q04DX003 (ip), vehicle: Klucel (hydroxypropylcellulose) (HPC)",97 % of control
O=[N+]([O-])c1ccc(C[Se]c2ncnc3c(C4OC(CO)C(O)C4O)[nH]nc23)cc1 (stereo not given),T/C,"dose: 12.5 mg/kg/injection, schedule: Q01DX005 (ip), vehicle: saline",98 % of control
same,T/C,"dose: 25.0 mg/kg/injection, schedule: Q01DX005 (ip), vehicle: saline",104 % of control
same,T/C,"dose: 50.0 mg/kg/injection, schedule: Q01DX005 (ip), vehicle: saline",93 % of control
C=CCNC(=O)C[n+]1cccc(C(=O)NC)c1,T/C,[4],106 % of control
same,T/C,[5],103 % of control
same,T/C,"dose: 400.0 mg/kg/injection, schedule: Q01DX001 (ip), vehicle: saline",97 % of control
Cc1cccc(C(=O)C=C(C(F)(F)F)C(F)(F)F)c1,T/C,"dose: 12.5 mg/kg/injection, schedule: Q04DX003 (ip), vehicle: saline with Tween-80",103 % of control
same,T/C,"dose: 25.0 mg/kg/injection, schedule: Q04DX003 (ip), vehicle: saline with Tween-80",111 % of control
same,T/C,"dose: 50.0 mg/kg/injection, schedule: Q04DX003 (ip), vehicle: saline with Tween-80",102 % of control and 118 % of control
COc1cc([N+](=O)[O-])ccc1NC(=O)c1ccccc1,T/C,[3],99 % of control
same,T/C,[6],101 % of control
same,T/C,[7],97 % of control
CCCCCCCCCCN1C(=O)c2ccccc2S1(=O)=O,T/C,"dose: 100.0 mg/kg/injection, schedule: Q01DX009 (ip), vehicle: saline",95 % of control
same,T/C,"dose: 100.0 mg/kg/injection, schedule: Q04DX003 (ip), vehicle: saline",97 % of control
same,T/C,"dose: 200.0 mg/kg/injection, schedule: Q01DX009 (ip), vehicle: saline",97 % of control
same,T/C,"dose: 200.0 mg/kg/injection, schedule: Q04DX003 (ip), vehicle: saline",100 % of control
same,T/C,"dose: 400.0 mg/kg/injection, schedule: Q01DX009 (ip), vehicle: saline",97 % of control
same,T/C,"dose: 400.0 mg/kg/injection, schedule: Q04DX003 (ip), vehicle: saline",95 % of control
NC(=O)c1cc([N+](=O)[O-])ccc1N,T/C,"dose: 100.0 mg/kg/injection, schedule: Q01DX001 (ip), vehicle: other",103 % of control
same,T/C,"dose: 100.0 mg/kg/injection, schedule: Q04DX003 (ip), vehicle: saline sonified",103 % of control
same,T/C,"dose: 200.0 mg/kg/injection, schedule: Q01DX001 (ip), vehicle: other",112 % of control
same,T/C,"dose: 200.0 mg/kg/injection, schedule: Q04DX003 (ip), vehicle: saline sonified",105 % of control
same,T/C,"dose: 400.0 mg/kg/injection, schedule: Q01DX001 (ip), vehicle: other",95 % of control
same,T/C,"dose: 400.0 mg/kg/injection, schedule: Q04DX003 (ip), vehicle: saline sonified",111 % of control
Cc1c(C(=O)OCCCl)c(=O)n(-c2ccccc2)n1C,T/C,[4],98 % of control
same,T/C,[5],98 % of control
COc1ccc(CN2CCCN(Cc3ccc(OC)cc3OC)C2c2ccc(N(CCCl)CCCl)cc2Cl)c(OC)c1,T/C,[2],101 % of control
same,T/C,[3],95 % of control
same,T/C,[6],98 % of control
same,T/C,[7],101 % of control
